According to patent US20230149419A1, “COMPOSITION FOR PREVENTING OR TREATING NEUROINFLAMMATORY DISEASES, COMPRISING CHLORPROMAZINE” (GliaCellTech Inc., priority 2020, published 2023):

Key:
[1] = test system: REV-ERBα protein in primary microglia from wild-type mice; experiment: REV-ERBα protein expression in primary microglia (western blotting), wild-type; type: cell-based, mouse
Method: Effects were analyzed in the experimental group not treated with chlorpromazine on the obtained microglia and the experimental group treated with chlorpromazine at a dose of 0.5 μM. For analysis of REV-ERBα protein expression levels, western blotting was carried out. Specifically, primary microglia were lysed in a 1% Triton X-100 lysis buffer (1% Triton X-100, 250 mM sucrose, 1 mM EDTA, 1 mM phenylmethylsulfonyl fluoride, and 50 mM NaCl in 20 mM Tris-HCl, pH 7.4) with 1×protease and phosphatase inhibitors (Thermo Fisher Scientific) and 0.1 M dithiothreitol (Sigma-Aldrich). The cell lysates were separated by sodium dodecyl sulfate-polyacrylamide gel electrophoresis and transferred to polyvinylidene fluoride membranes. The membranes were incubated with the appropriate primary antibodies, and bound antibodies were detected by species-specific, horseradish peroxidase-conjugated secondary antibodies. Chemiluminescence detection was performed to analyze the protein bands of interest.

[2] = test system: primary microglia from wild-type mice; experiment: LPS-induced cytokine mRNA expression in primary microglia (qRT-PCR), wild-type; type: cell-based, mouse
Method: (§1) Primary microglia were obtained from wild-type mice and Psen2^N141I/+ mice with Alzheimer's disease. Specifically, brains were excised from neonatal mice 1 to 3 days old and cells were obtained therefrom. The cells were cultured in Dulbecco's modified Eagle's medium (DMEM, Corning) supplemented with 10% heat-inactivated fetal bovine serum (HI-FBS, Hyclone) and 1% penicillin-streptomycin (Hyclone). Primary microglia were isolated in vitro by tapping after 12 days of culturing. Purity of primary microglia was estimated by immunostaining with an antibody against Iba-1, which is a microglial marker.
(§2) In this regard, the primary microglia were preincubated with or without 0.5 μM chlorpromazine for 30 min before LPS treatment. Anti-inflammatory effects were compared and analyzed between the test groups.
(§3) The culture of each group was measured for microglial mRNA expression levels of the target cytokines by qRT-PCR (quantitative RT-PCR). Specifically, RNA was isolated from the microglia and cDNA was synthesized using an ImProm-II Reverse Transcriptase kit (Promega). PCR primers were commercially available (Cosmo Genetech). qRT-PCR was performed using Taq Polymerase (Invitrogen) and mouse cDNA-specific primers listed in Table 6, below. In addition, TOPreal™ qPCR 2×PreMIX (SYBR Green with low ROX) (Enzynomics) was used. Amplification (50 cycles) was performed for 50 cycles with all primers in a CFX96 Real-Time System (Bio-Rad). Actb was used as the reference genes for normalization.

[3] = test system: Psen2 mutation mouse model of Alzheimer's disease; experiment: Y-maze test, Psen2 mutation mouse model of Alzheimer's disease; type: in vivo; details: for Y-maze Alternation % / Y-maze No. of Arm entry: chlorpromazine 0.25 mg/kg i.p., mean±SEM
Method: (§4) Specifically, the Y-maze was used to evaluate spatial working memory. The assay was conducted in white plastic arms of a Y-shaped maze. A mouse was placed in the center of the maze and was allowed to freely explore the arms for 5 min. The experiment was recorded with EthoVision software (Noldus). The number of arm entries and the number of triads were analyzed to calculate the percentage of alternation by dividing the number of three consecutive arm entries (triads) by the number of possible triads×100 (total arm entries−2).
(§5) An examination was made to see whether LPS-induced inflammation causes memory decline and chlorpromazine reverses the LPS-induced inflammation in disease animal models. To analyze memory and behavior performance, the Y-maze test as in Example 4 was conducted.

[4] = test system: primary microglia from Psen2 mutation (KI/+) mouse model of Alzheimer's disease; experiment: fAβ42-induced cytokine secretion in primary microglia (ELISA), Psen2 mutation; type: cell-based
Method: as §1
Specifically, FITC-conjugated amyloid beta 1-42 was prepared according to the follow reference (Cho, M.-H. et al. “Autophagy in microglia degrades extracellular β-amyloid fibrils and regulates the NLRP3 inflammasome.” Autophagy 10, 1761-1775 (2014)).
The primary cultures of microglia prepared in Example 5-1 from the Psen2 mutation (KI/+) mouse model of Alzheimer's disease and the wild-type (WT) mice were directly treated with 4 μM of the fibrilized amyloid beta 1-42 (fAβ42), followed by incubation with or without 0.5 μM chlorpromazine.

[5] = test system: primary microglia from Psen2 mutation mouse model of Alzheimer's disease; experiment: IL-1β secretion after LPS and inflammasome activation (nigericin/ATP), Psen2 mutation microglia; type: cell-based; details: for IL-1β secreted: chlorpromazine 30 min, LPS 1 μg/mL 3 h
Method: as §1
IL-1β is a cytokine released from an activated inflammasome complex in microglia. For secretion of the cytokine, additional treatment with a drug for inducing activation of the inflammasome complex is necessary following LPS-induced inflammation. […] Application of the test groups thus obtained could divide groups 5 to 8 of Example 5-2 into 10 subgroups according to treatment with nigericin and ATP.

[6] = test system: Psen2^N141I/+ Alzheimer's disease mice; experiment: Serum cytokine levels after low-concentration LPS injection, Psen2 mutation mice
Method: To investigate neuroinflammation at various concentrations of LPS, blood was extracted from cheek veins in the wild-type mice in group 2 and the mouse model of Alzheimer's disease in group 4 20 hours after the injection of LPS. The sera obtained by centrifugation were quantitatively analyzed for IL-6, TNFα, CCL2, CXCL1, and CCL5 by using ELISA kit (R&D Systems) according to the manufacturer's instruction. In addition, the same procedure was conducted for the wild-type mice without LPS injection of group 1 and the Psen2^N141I mutation mouse model of Alzheimer's disease of group 3 to obtain sera which were then analyzed for the proteins by using the ELISA kit according to the manufacturer's instruction.
The wild-type mice and the Psen2 mutation mouse model of Alzheimer's disease obtained in Example 1 were intraperitoneally injected with chlorpromazine (0.25 mg/body weight kg) at 14:00 and then with such a low concentration of LPS (0.35 μg/kg) as to be ineffective for inflammation in wild-type mice at 18:00 (Zeitgeber time light-on at 11:00 and 07:00). After 20 hours, the mice were monitored for inflammatory responses and memory behavior. The concentration of chlorpromazine (0.25 mg/body weight kg) used in this assay is tens- to hundreds-fold lower than those conventionally used as an antipsychotic (25 mg/injection, 3 times/day).
After the experiment conducted as in the scheme of FIG. 11A, the wild-type and the Psen2^N141I/+ Alzheimer's disease mice, both intraperitoneally injected with LPS, were analyzed for inflammatory response according to chlorpromazine treatment as measured for serum levels of the circadian clock-controlled cytokines (IL-6, CXCL1, CCL2, and CCL5) by ELISA as in Example 2.

[7] = test system: primary microglia from Psen2^N141I/+ mice with Alzheimer's disease; experiment: LPS-induced cytokine mRNA expression in primary microglia (qRT-PCR), Psen2 mutation; type: cell-based, mouse
Method: as §1, §2, §3

wild-type mice = experiment: Y-maze test, wild-type mice; type: in vivo, mouse; details: for Y-maze Alternation % / Y-maze No. of Arm entry: chlorpromazine 0.25 mg/kg i.p., mean±SEM
Method: as §4, §5

[8] = WT microglia, LPS 1 μg/mL 12 h, 0.5 μM chlorpromazine (Group 6)
[9] = Alzheimer's disease model/LPS(+)/CPZ(+) (Group 48), LPS 0.35 μg/kg
[10] = Alzheimer's disease model/LPS(−)/CPZ(+) (Group 46)
[11] = KI/+ microglia, 4 μM fAβ42, 0.5 μM chlorpromazine (Group 26)
[12] = Alzheimer's disease model mice, chlorpromazine 0.25 mg/kg i.p., LPS 0.35 μg/kg i.p., 20 h after LPS (Group 40)
[13] = KI/+ microglia, LPS 1 μg/mL 12 h, 0.5 μM chlorpromazine (Group 8)
[14] = wild-type/LPS(+)/CPZ(+) (Group 44), LPS 0.35 μg/kg
[15] = wild-type/LPS(−)/CPZ(+) (Group 42)

SMILES: CN(C)CCCN1c2ccccc2Sc2ccc(Cl)cc21 [CPZ, 3-(2-chloro-10H-phenothiazin-10-yl)-N,N-dimethyl-propan-1-amine]
- REV-ERBα protein expression ([1]; WT microglia, no LPS, 0.5 μM chlorpromazine (Group 28), mean±SEM): 0.956 ± 0.096 fold
- REV-ERBα protein expression level (in words) ([1]; wild-type microglia, group 28): no effect
- Inflammatory cytokine expression Ccl2 (mRNA) [2, 8]: 0.907 fold
- Inflammatory cytokine expression Ccl5 (mRNA) [2, 8]: 1.113 fold
- Inflammatory cytokine expression Cxcl1 (mRNA) [2, 8]: 0.968 fold
- Inflammatory cytokine expression Tnf (mRNA) [2, 8]: 1.066 fold
- Inflammatory cytokine expression Il-6 (mRNA) ([2]; WT microglia, LPS 1 μg/mL 12 h, 0.5 μM chlorpromazine (Group 6), normalized to Actb): 0.947 fold
- mRNA levels of circadian clock-controlled cytokines (in words) ([2]; wild-type microglia, groups 5 and 6, LPS): not affected
- Y-maze Alternation % [3, 9]: 72.000 ± 3.964%
- Y-maze No. of Arm entry [3, 9]: 16.500 ± 1.368
- Y-maze Alternation % [3, 10]: 77.714 ± 4.699%
- Y-maze No. of Arm entry [3, 10]: 18.286 ± 1.063
- LPS-induced memory decline, arm alternation in Y-maze (in words) ([3]; LPS-injected Psen2 mutation mouse model, group 48): sufficient recovery
- memory performance, arm alternation in Y-maze (in words) ([3]; Psen2 mutation mice, chlorpromazine alone vs no drug treatment): no significant different memory performance
- Secreted inflammatory cytokine CCL2 [4, 11]: 1645.882 pg/mL
- Secreted inflammatory cytokine CCL5 [4, 11]: 1818.188 pg/mL
- Secreted inflammatory cytokine CXCL1 [4, 11]: 1528.621 pg/mL
- Secreted inflammatory cytokine IL-6 [4, 11]: 1336.446 pg/mL
- Secreted inflammatory cytokine TNF-α [4, 11]: 1352.738 pg/mL
- anti-inflammatory effect after fAβ42 (in words) ([4]; microglia from Psen2 mutation mouse model (group 26), 0.5 μM chlorpromazine): exhibited an anti-inflammatory effect
- levels of TNF-α after fAβ42 (in words) ([4]; microglia from wild-type mice and Psen2 mutation model): no impacts
- IL-1β secreted ([5]; Psen2 mutation microglia (Group 20), Nig(+)/ATP(−), nigericin 10 μM 40 min): 946.122 pg/mL
- IL-1β secreted ([5]; Psen2 mutation microglia (Group 22), Nig(−)/ATP(+), ATP 5 mM 40 min): 1186.118 pg/mL
- production of IL-1β (in words) ([5]; across all the groups (WT and Psen2 mutation microglia), LPS plus nigericin or ATP): no impacts
- Inflammatory cytokine secreted CCL2 (serum) [6, 12]: 107.403 pg/mL
- Inflammatory cytokine secreted CCL5 (serum) [6, 12]: 93.240 pg/mL
- Inflammatory cytokine secreted CXCL1 (serum) [6, 12]: 173.999 pg/mL
- Inflammatory cytokine secreted IL-6 (serum) [6, 12]: 44.280 pg/mL
- Inflammatory cytokine secreted TNF-α (serum) [6, 12]: 71.248 pg/mL
- production of the circadian clock-controlled cytokines in serum (in words) ([6]; Psen2 mutation mice, group 40 vs 39, LPS 0.35 μg/kg): remarkably repressed
- Inflammatory cytokine expression Ccl2 (mRNA) [7, 13]: 0.670 fold
- Inflammatory cytokine expression Ccl5 (mRNA) [7, 13]: 0.730 fold
- Inflammatory cytokine expression Cxcl1 (mRNA) [7, 13]: 0.692 fold
- Inflammatory cytokine expression Il-6 (mRNA) [7, 13]: 0.538 fold
- Inflammatory cytokine expression Tnf (mRNA) [7, 13]: 1.020 fold
- mRNA expression of IL-6, CXCL1, CCL2, and CCL5 (in words) ([7]; Psen2 mutation microglia, groups 7 vs 8, chlorpromazine 0.5 μM, LPS): decrease the mRNA expression
- mRNA level of TNF-α (in words) ([7]; across all the groups (WT and KI/+ microglia), LPS): no impacts
- memory performance, arm alternation in Y-maze (in words) (wild-type mice; wild-type mice, chlorpromazine alone (group 42) or with LPS (group 44)): normal memory performance
- Y-maze Alternation % (wild-type mice; [14]): 64.333 ± 3.175%
- Y-maze No. of Arm entry (wild-type mice; [14]): 17.889 ± 1.136
- Y-maze Alternation % (wild-type mice; [15]): 66.667 ± 4.681%
- Y-maze No. of Arm entry (wild-type mice; [15]): 20.167 ± 1.537
